Experimental data: patent publication US11110195B2, “Esculentin 1a derivatives and uses thereof” (University of Houston System, priority 2013, dated 2021)
Where two headings read alike, the source gives them in different places. Residues, ends and D or L forms follow the SMILES beside them.

Assays:
P. aeruginosa ATCC 27853 = test: Bactericidal activity in the presence of salt (NaCl); format: cell-based, Pseudomonas aeruginosa; details: 150 mM NaCl, 37° C., 20 min
Experimental: FIGS. 1A-1B show the effects of salt on the bactericidal activity of Esc-1a(1-21)NH2 against P. aeruginosa ATCC 27853. FIG. 1A: Bacterial cells were incubated with different concentrations of Esc-1a(1-21)NH2 in the presence of 150 mM NaCl for 20 minutes at 37° C. Mean data from three experiments, expressed as the percentage of bacteria killed by the peptide with respect to the control sample (bacteria not treated with the peptide) are reported. FIG. 1B: Bacterial cells were incubated with the peptide (1 μM) in the absence or in the presence of varying concentrations of NaCl at 37° C. for 20 minutes. Mean data from three experiments, expressed as the percentage of bacteria killed by the peptide with respect to the control sample (bacteria not treated with the peptide) are reported.
Owing to their mode of action, the antimicrobial activity of antimicrobial peptides may be reduced in the presence of salt. […] In FIG. 1B, 2×10^6 CFU/ml P. aeruginosa (ATCC 27853) were incubated with 1 μM Esc-1a(1-21)NH2 in the presence of increasing amounts of NaCl at 37° C. for 20 minutes then aliquots plated and counted (n=3). Concentrations of Esc-1a(1-21)NH2 at 0.68 μM and above fully retained activity in 150 mM NaCl, the physiological salt concentration at the ocular surface.

[1] = tested on: human telomerase immortalized corneal epithelial cells (hTCEpi); test: Wound healing (cell migration) assay, corneal epithelial cells; format: cell-based; details: hTCEpi monolayer
Experimental: The percentage of cell-covered area at each time point was determined and is reported on the y-axis. Control (Ctrl) represents cells not treated with the peptide. All data are the mean of at least three independent experiments ±SE.
To determine cell migration after treatment with Esc-1a(1-21)NH2, a wound healing assay was performed using human telomerase immortalized corneal epithelial cells (hTCEpi) (FIG. 9). Cells were cultured in Keratinocyte growth Medium-2 supplemented with growth factors and Normocin […] (KGM-2g). Cell migration was studied as follows: hTCEpi cells (70,000) suspended in KGM-2g were seeded on each side of ibidi culture inserts for live cell analysis (Ibidi, Munich, Germany). Inserts were placed into 35 mm dishes and incubated at 37° C. and 5% CO2 to allow cells grow to confluence. Afterwards, inserts were removed with sterile tweezers to create a cell-free area (“wound”) of approximately 500 μm; after a wash with 1 ml of PBS, 1 ml of Dulbecco's modified Eagle's medium (DMEM) supplemented with 4 mM L-glutamine, 5% fetal bovine serum (FBS) and the peptide at different concentrations was added. The dishes with inserts were placed in an appropriate incubator and the cells were allowed to migrate. […] The percentage of cell-covered area at each time was determined by WIMASIS Image Analysis program. […]

[2] = tested on: P. aeruginosa ATCC 27853 biofilm; details: 2 hours treatment
Experimental: (§1) Data points are the mean±SEM of three independent experiments. The levels of statistically significant differences between the two peptides are indicated as follows *P<0.05, **P<0.01, ***P<0.001
(§2) The reference strain and the clinical isolates were grown at 37° C. in Luria-Bertani broth (LB) to mid-log phase (optical density of 0.8 at 590 nm). With the help of tweezers, silicone hydrogel narafilcon A soft CL (1-Day ACUVUE TruEye) were removed from the manufacturer's containers, and washed thrice in phosphate buffered saline (PBS). The lenses were then immersed into wells of a 24-multiwell plate, each well containing 1 mL of bacterial inoculum in 1/10 LB at a concentration of 5×10^4 colony-forming units (CFU)/mL. Noteworthy, the number of bacteria isolated from CL storage cases has been reported to range from 1 to 6×10^4 CFU/case (2, 10). Therefore, in order to reproduce a more realistic level of bacteria to which CLs can be exposed, an inoculum size of 5×10^4 CFU/mL was used for biofilm formation.
(§3) The plate was then incubated in a humidified incubator at 37° C. at 125 rpm to allow biofilm formation on the surface of both lens sides. After 20 hours of incubation, each lens was washed thrice with PBS to remove any non-adherent planktonic cells.
(§4) The lenses were then transferred into wells of a new 24-multiwell plate, each well containing serial dilutions of Esc-1a(1-21)NH2 and Esc-1a(1-21)-1cNH2 in PBS. For […] controls, the lenses were immersed in sterile PBS. The new plate was then incubated at 37° C. for 2 hours with gentle shaking (125 rpm). After peptide treatment, each lens was washed thrice in PBS and transferred into wells of another 24-multiwell plate, each well containing 350 μL of 0.5 mg/mL of 3-(4,5-dimethylthiazol-2-yl)-2,5-diphenyltetrazolium bromide (MTT, from Sigma Aldrich, Milan, Italy) in Hank's solution (136 mM NaCl; 0.34 mM Na2HPO4; 0.44 mMKH2PO4; 5.4 mM KCl; 4.1 mM NaHCO3 pH 7.2, supplemented with 5.5 mM D-glucose) as previously reported (8). The killing of biofilms was determined as a function of the inhibition of MTT reduction to insoluble formazan crystals by bacterial reductases. The plate was incubated again for 2 hours (125 rpm) at 37° C. Formazan crystals were solubilized by the addition of acidified isopropanol. During overnight incubation at room temperature the resulting purple color was absorbed by the lens. Afterward, each lens was soaked in absolute ethanol (500 μL in each well) to decolor it. Aliquots of 100 μL were finally transferred to the wells of a 96-multiwell plate and absorbance was measured at 590 nm using a microplate reader (Infine M 200, Tecan). Untreated bacterial cells in PBS were the control. Percentage of killing was calculated according to the formula: [1−(Abs of treated samples−Abs of blank/Abs of control samples-Abs of blank)][…], where the blank was the solvent PBS.

P. aeruginosa R1 biofilm = details: 4 μM, 2 hours treatment
Experimental: as §1, §2, §3, §4

SMILES: CC[C@H](C)[C@H](NC(=O)CN)C(=O)N[C@@H](Cc1ccccc1)C(=O)N[C@@H](CO)C(=O)N[C@@H](CCCCN)C(=O)N[C@@H](CC(C)C)C(=O)N[C@@H](C)C(=O)NCC(=O)N[C@@H](CCCCN)C(=O)N[C@@H](CCCCN)C(=O)N[C@H](C(=O)N[C@@H](CCCCN)C(=O)N[C@@H](CC(N)=O)C(=O)N[C@@H](CC(C)C)C(=O)N[C@@H](CC(C)C)C(=O)N[C@H](C(=O)N[C@@H](CO)C(=O)NCC(=O)N[C@@H](CC(C)C)C(=O)N[C@@H](CCCCN)C(=O)NCC(N)=O)[C@@H](C)CC)[C@@H](C)CC [Esc-1a(1-21)NH2] (H-GIFSKLAGKKIKNLLISGLKG-NH2; N-terminus assumed)
- Peptide concentration fully retaining bactericidal activity (P. aeruginosa ATCC 27853): ≥ 0.68 µM
- optimal concentration allowing complete coverage of the wound field [1]: 0.005 µM
- time to maximum cell-covered area after peptide addition [1]: 9 to 12 h
- biofilm killing ([2]; 4 μM): activity was lost
- biofilm killing ([2]; 32 μM): more than 50%
- biofilm killing (P. aeruginosa R1 biofilm): 0%
